ChEMBL document CHEMBL1127354, “Nonpeptidic inhibitors of human leukocyte elastase. 3. Design, synthesis, X-ray crystallographic analysis, and structure-activity relationships for a series of orally active 3-amino-6-phenylpyridin-2-one trifluoromethyl ketones” (J Med Chem, 1994)

Legend:
physchem = conditions: octanol/water
[1] = Partition coefficient (logP); type: physicochemical; conditions: octanol/water
[2] = Maximum concentration of unchanged drug in plasma recorded in the period 0-6 hr of postdose in anesthetized rat at 25 mg/kg oral dose; type: ADME, organism-based; parameters: dose 25 mg/kg, route oral
[3] = Time taken to reach maximum drug concentration in plasma of anesthetized rat at 25 mg/kg oral dose; type: ADME, organism-based; parameters: dose 25 mg/kg, route oral
[4] = Oral bioavailability was measured at concentration of 25 mg/kg oral dose; type: ADME, organism-based; conditions: eutheria, in vivo
[5] = Time taken to reach half of the concentration in blood plasma of anesthetized rat at 25 mg/kg oral dose; type: ADME, organism-based; parameters: dose 25 mg/kg, route oral
[6] = Maximum concentration of unchanged drug in plasma recorded in the period 0-6 hr of postdose in anesthetized rat at 60 mg/kg oral dose; type: ADME, organism-based; parameters: dose 60 mg/kg, route oral
[7] = Time taken to reach maximum drug concentration in plasma of anesthetized rat at 60 mg/kg oral dose; type: ADME, organism-based; parameters: dose 60 mg/kg, route oral
[8] = Oral bioavailability was measured at concentration of 60 mg/kg oral dose; type: ADME, organism-based; conditions: eutheria, in vivo
[9] = Maximum concentration of unchanged drug in plasma recorded in the period 0-6 hr of postdose to hamster at 40 mg/kg oral dose; type: ADME, organism-based; parameters: dose 40 mg/kg, route oral; conditions: cricetinae
[10] = Time taken to reach maximum drug concentration in plasma of dog at 5 mg/kg oral dose; type: ADME, organism-based, Canis lupus familiaris; parameters: dose 5 mg/kg, route oral
[11] = Time taken to reach maximum drug concentration in plasma of hamster at 40 mg/kg oral dose; type: ADME, organism-based; parameters: dose 40 mg/kg, route oral; conditions: cricetinae
[12] = Oral bioavailability was measured at concentration of 40 mg/kg oral dose; type: ADME, organism-based; conditions: eutheria, in vivo
[13] = Oral bioavailability was measured at concentration of 5 mg/kg oral dose in dog; type: ADME, organism-based, Canis lupus familiaris; conditions: in vivo
[14] = Time taken to reach half of the concentration in blood plasma of dog at 5 mg/kg oral dose; type: ADME, organism-based, Canis lupus familiaris; parameters: dose 5 mg/kg, route oral
[15] = Time taken to reach half of the concentration in blood plasma of hamster at 40 mg/kg oral dose; type: ADME, organism-based; parameters: dose 40 mg/kg, route oral; conditions: cricetinae
[16] = Maximum concentration of unchanged drug in plasma recorded in the period 0-6 hr of postdose in dog at 5 mg/kg oral dose; type: ADME, organism-based, Canis lupus familiaris; parameters: dose 5 mg/kg, route oral
[17] = Maximum concentration of unchanged drug in plasma recorded in the period 0-6 hr of postdose in hamster at 40 mg/kg oral dose; type: ADME, organism-based; parameters: dose 40 mg/kg, route oral; conditions: cricetinae
[18] = Oral bioavailability was measured at concentration of 40 mg/kg oral dose to hamster; type: ADME, organism-based, Cricetulus griseus; conditions: chinese hamster, in vivo

| SMILES | logP (physchem) | other results |
| --- | --- | --- |
| CC(C)C(NC(=O)Cn1c(-c2ccccc2)ccc(NC(=O)NCc2ccccn2)c1=O)C(=O)C(F)(F)F (centres undefined) | 2.15 |  |
| CC(C)C(NC(=O)Cn1c(-c2ccccc2)ccc(NS(=O)(=O)Cc2ccccc2)c1=O)C(=O)C(F)(F)F (centres undefined) |  | logP [1]: Not detected |
| COc1ccc(S(=O)(=O)Nc2ccc(-c3ccccc3)n(CC(=O)NC(C(=O)C(F)(F)F)C(C)C)c2=O)cc1 (centres undefined) | 2.5 |  |
| CC(C)C(NC(=O)Cn1c(-c2ccccc2)ccc(NC(=O)OCc2ccccc2)c1=O)C(=O)C(F)(F)F (centres undefined) |  | Cmax [2]: 1.89 µg/mL; Tmax [3]: 1.4 h; bioavailability [4]: 59%; half-life [5]: 3 h |
| CC(C)C(NC(=O)Cn1c(-c2ccccc2)ccc(NC(=O)NCc2cc[n+]([O-])cc2)c1=O)C(=O)C(F)(F)F (centres undefined) | 1.13 |  |
| CC(C)C(NC(=O)Cn1c(-c2ccccc2)ccc(NC(=O)NCc2ccncc2)c1=O)C(=O)C(F)(F)F (centres undefined) | 2.16 | Cmax [6]: 0.075 µg/mL; Tmax [7]: 3 h; bioavailability [8]: 2% |
| Cc1cc(COC(=O)Nc2ccc(-c3ccccc3)n(CC(=O)NC(C(=O)C(F)(F)F)C(C)C)c2=O)cc(C)n1 (centres undefined) | 2.38 |  |
| CC(C)C(NC(=O)Cn1c(-c2ccccc2)ccc(NS(=O)(=O)NCc2ccccc2)c1=O)C(=O)C(F)(F)F (centres undefined) | 2.57 |  |
| CC(C)C(NC(=O)Cn1c(-c2ccccc2)ccc(NC(=O)NCc2ccc[n+]([O-])c2)c1=O)C(=O)C(F)(F)F (centres undefined) | 1.48 |  |
| CC(C)C(NC(=O)Cn1c(-c2ccccc2)ccc(NC(=O)OCc2cccc(C(=O)O)c2)c1=O)C(=O)C(F)(F)F (centres undefined) |  | logP [1]: Not detected |
| CC(C)C(NC(=O)Cn1c(-c2ccccc2)ccc(NS(C)(=O)=O)c1=O)C(=O)C(F)(F)F (centres undefined) | 1.77 |  |
| CC(C)C(NC(=O)Cn1c(-c2ccccc2)ccc(NC(=O)OCc2ccncc2)c1=O)C(=O)C(F)(F)F (centres undefined) | 2.41 | Cmax [9]: 2.77 µg/mL; Tmax [10]: 1 h; Tmax [11]: 0.25 h; bioavailability [12]: 45%; bioavailability [13]: ~100%; half-life [14]: 0.8 h; half-life [15]: 1.3 h; Cmax [16]: 3.15 µg/mL |
| CC(C)C(NC(=O)Cn1c(-c2ccccc2)ccc(N)c1=O)C(=O)C(F)(F)F (centres undefined) | 1.74 |  |
| CC(C)C(NC(=O)Cn1c(-c2ccccc2)ccc(NC(=O)C(F)(F)F)c1=O)C(=O)C(F)(F)F (centres undefined) | 3.86 |  |
| CC(C)C(NC(=O)Cn1c(-c2ccccc2)ccc(NC(=O)OCc2ccc(C(=O)O)cc2)c1=O)C(=O)C(F)(F)F (centres undefined) | 0.84 |  |
| CC(C)C(NC(=O)Cn1c(-c2ccccc2)ccc(NS(=O)(=O)c2ccccc2)c1=O)C(=O)C(F)(F)F (centres undefined) | 2.53 |  |
| CC(=O)Nc1ccc(S(=O)(=O)Nc2ccc(-c3ccccc3)n(CC(=O)NC(C(=O)C(F)(F)F)C(C)C)c2=O)cc1 (centres undefined) |  | logP [1]: Not detected |
| CC(C)C(NC(=O)Cn1c(-c2ccccc2)ccc(NS(N)(=O)=O)c1=O)C(=O)C(F)(F)F (centres undefined) | 1.17 |  |
| CC(C)C(NC(=O)Cn1c(-c2ccccc2)ccc(NC(=O)Cc2ccc(C(=O)O)cc2)c1=O)C(=O)C(F)(F)F (centres undefined) | 0.35 |  |
| CC(C)C(NC(=O)Cn1c(-c2ccccc2)ccc(NC(=O)Cc2ccccc2C(=O)O)c1=O)C(=O)C(F)(F)F (centres undefined) | 1.14 |  |
| CCNc1ccc(-c2ccccc2)n(CC(=O)NC(C(=O)C(F)(F)F)C(C)C)c1=O (centres undefined) | 2.37 |  |
| CC(C)C(NC(=O)Cn1c(-c2ccccc2)ccc(NC(=O)NCc2cccnc2)c1=O)C(=O)C(F)(F)F (centres undefined) | 2.84 |  |
| CC(C)C(NC(=O)Cn1c(-c2ccccc2)ccc(NC(=O)CN2CCOCC2)c1=O)C(=O)C(F)(F)F (centres undefined) | 2 |  |
| CC(C)C(NC(=O)Cn1c(-c2ccccc2)ccc(NC=O)c1=O)C(=O)C(F)(F)F (centres undefined) | 1.84 |  |
| CC(=O)Nc1ccc(-c2ccccc2)n(CC(=O)NC(C(=O)C(F)(F)F)C(C)C)c1=O (centres undefined) | 1.78 | Cmax [17]: 2.78 µg/mL; Tmax [11]: 0.25 h; bioavailability [18]: 35%; half-life [15]: 1.9 h |
| CC(C)C(NC(=O)Cn1c(-c2ccccc2)ccc(NC(=O)OCc2ccccn2)c1=O)C(=O)C(F)(F)F (centres undefined) | 1.91 |  |
